Experimental data taken from patent publication US12584903B2, “Cellular-based method for determining the potency of defibrotide” (GENTIUM S.R.L., priority 2014, dated 2026).

Legend:
SK-HEP-1 cells [1] = experiment: Cell protection assay: viability of SK-HEP-1 cells incubated with doxorubicin, CCK-8 assay; format: cell-based, human; conditions: doxorubicin 0.1 μg/ml, defibrotide 50 μg/ml or greater, 72 hours
Method: The cytotoxic agent was doxorubicin at a concentration of 0.1 μg/ml. Defibrotide was added to the microplate well at a concentration of 100, 50, 20, 10, 5 or 1 μg/ml. Three replicates of each condition were performed. The viability was assessed after 72 hours with the CCK-8 assay kit as described above. […] (FIG. 2).

SK-HEP-1 cells [2] = experiment: Cell protection assay: viability of SK-HEP-1 cells incubated with fludarabine, CCK-8 assay, 4-parameter logistic potency analysis; conditions: fludarabine 10 μg/ml, 72 hours
Method: The human liver sinusoidal endothelial cell line SK-HEP-1 was obtained from the American Type Culture Collection (ATCC) and cultured in complete EMEM medium in a humidified cell incubator containing 5% CO2 at 37° C. using gelatin-coated tissue culture flasks. The cells were sub-cultured by trypsin mediated detachment every 2-3 days following the instructions provided by the ATCC. Cells were serially transferred into culture flasks when the culture was 80-90% confluent and used for the protection assay between passages +3 to +10. That is, 3 to 10 passages beyond the characterised passage number of the cells received from the ATCC.
A suspension of SK-HEP-1 for use in the cell protection assay was prepared and counted. […] Cells were counted using a Neubauer counting chamber in the presence of trypan blue to assess the percent viability of the cultures.
Fifty μl of the cell suspensions, or medium alone for blanks, prepared at the concentrations described above was placed in wells of a poly-D-lysine coated 96-well microtiter plate. […] Following addition of the solution to the wells, the plates were returned to the incubator and cell viability was assessed after 24, 48 or 72 hr. […]
After the specified period of incubation, cell viability in each well was measured using the CCK-8 cell counting kit (Sigma Aldrich, Milan, Italy) following the manufacturer's instructions. […]

HMEC-1 cells = experiment: Cell protection assay: viability of HMEC-1 cells incubated with fludarabine, MTT assay; format: cell-based, human; conditions: 72 hours
Method: The MTT assay is based on the cleavage of tetrazolium salts by mitochondrial dehydrogenase in viable cells leading to the production of an insoluble formazan dye. MTT dye, 10 μl of a 2 mg/ml solution in D-PBS, was added to each well and then the plates were incubated for 3 hours. Plates were then centrifuged and each well aspirated. The dye was solubilised with 200 μl of a mixture DMSO/Ethanol (1:1) and absorbance in the wells was read at 570-590 nm on a microplate reader. A blank well containing only media and cytotoxic drug (fludarabine or doxorubicin) was also run as a control in all experiments.
HMEC-1 cells were cultivated according to the above mentioned procedure. A cell density of 500,000 cells/ml was used for the assay. […] Defibrotide was added to the microplate well at a concentration of 100, 10 or 1 μg/ml. Four replicates of each condition were performed. The viability of the HMEC cells was assessed after 72 hours with the MTT assay described above.
HMEC-1 cells were cultivated according to the above mentioned procedure. A cell density of about 500,000 cells/ml was used for the experiment. The cytotoxic agent was fludarabine at a concentration of 50 μg/ml. Synthetic oligonucleotides (Adenine-Cytosine (AC) of about 16 kDa or Adenine-Cytosine-Guanine-Thymine (ACGT) of about 17 kDa) or defibrotide were added to each well at varying concentrations. Specifically, the AC oligonucleotides were added to each well at a concentration of 1, 10, 100 or […], whereas the ACGT oligonucleotides were added to each well at a concentration of 12.5, 25 or 50 μg/ml. […] Each treatment condition was performed in triplicate. The viability was assessed with the MTT assay after 24, 48 and 72 hours.

Compound | protection from doxorubicin-induced cytotoxicity (in words) (SK-HEP-1 cells [1]) | cells surviving (SK-HEP-1 cells [2]; defibrotide 40 μg/ml or greater) | protection effect against fludarabine-induced cytotoxicity (HMEC-1 cells; fludarabine 10 μg/ml, defibrotide 100 μg/ml) | protection from fludarabine-induced cytotoxicity (in words) (HMEC-1 cells; fludarabine 10 μg/ml, defibrotide 100, 10 or 1 μg/ml) | protection from fludarabine-induced cytotoxicity (in words) (HMEC-1 cells; fludarabine 50 μg/ml, AC 1-500 μg/ml, ACGT 12.5-50 μg/ml, defibrotide 5-100 μg/ml) | protection from fludarabine-induced cytotoxicity (in words) (SK-HEP-1 cells [2]; ACGT or glutathione 1.25-80 μg/ml, tPA 10-320 IU/ml)
defibrotide | significantly protected | greater than 80% | more than 50% | protected the cells from fludarabine-induced cytotoxicity in a dose-dependent manner | dose-dependent protection | –
N[C@@H](CCC(=O)N[C@@H](CS)C(=O)NCC(=O)O)C(=O)O [glutathione, Glutathione] | – | – | – | – | – | No protection
